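96-well plates; 48 h exposure; 5 concentrations. Endpoints by linear interpolation between flanking doses. Not reached: highest tested concentration assigned. GI50: concentration for 50% inhibition of growth.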 Active and inactive are the calls of the source. Rule as the data show it: active = GI50 up to about 1.1 µM and inactive = higher.
Legend:
Experiment in all cases: inhibition of tumour cell growth, NCI panel, 48 h
786-0 = system: 786-0
A498 = system: A498
A549 = system: A549
ACHN = system: ACHN
BT-549 = system: BT-549
CAKI-1 = system: CAKI-1
CCRF-CEM = system: CCRF-CEM
COLO 205 = system: COLO 205
DU-145 = system: DU-145
EKVX = system: EKVX
HCC 2998 = system: HCC 2998
HCT-116 = system: HCT-116
HCT-15 = system: HCT-15
HL-60 = system: HL-60
HOP-62 = system: HOP-62
HT-29 = system: HT-29
Hs-578T = system: Hs-578T
IGROV-1 = system: IGROV-1
K562 = system: K562
KM12 = system: KM12
LOX IMVI = system: LOX IMVI
M14 = system: M14
MCF7 = system: MCF7
MDA-MB-231 = system: MDA-MB-231
MDA-MB-435 = system: MDA-MB-435
MDA-N = system: MDA-N
MOLT-4 = system: MOLT-4
Malme-3M = system: Malme-3M
NCI-H226 = system: NCI-H226
NCI-H23 = system: NCI-H23
NCI-H522 = system: NCI-H522
NCI/ADR-RES = system: NCI/ADR-RES
OVCAR-3 = system: OVCAR-3
OVCAR-4 = system: OVCAR-4
OVCAR-5 = system: OVCAR-5
OVCAR-8 = system: OVCAR-8
PC-3 = system: PC-3
RPMI-8226 = system: RPMI-8226
RXF 393 = system: RXF 393
SF-268 = system: SF-268
SF-295 = system: SF-295
SF-539 = system: SF-539
SK-MEL-2 = system: SK-MEL-2
SK-MEL-5 = system: SK-MEL-5
SK-OV-3 = system: SK-OV-3
SN12C = system: SN12C
SNB-19 = system: SNB-19
SNB-75 = system: SNB-75
SR = system: SR
SW-620 = system: SW-620
T47D = system: T47D
TK-10 = system: TK-10
U-251 = system: U-251
UACC-257 = system: UACC-257
UACC-62 = system: UACC-62
UO-31 = system: UO-31
NCI-H460 = system: NCI-H460
SK-MEL-28 = system: SK-MEL-28

CC(C#N)N(CCc1ccccc1)C(=O)c1ccccc1 (stereo not given)
GI50 (786-0): > 100 µM (inactive)
GI50 (A498): > 100 µM (inactive)
GI50 (A549): > 100 µM (inactive)
GI50 (ACHN): > 100 µM (inactive)
GI50 (BT-549): > 100 µM (inactive)
GI50 (CAKI-1): > 100 µM (inactive)
GI50 (CCRF-CEM): > 100 µM (inactive)
GI50 (COLO 205): > 100 µM (inactive)
GI50 (DU-145): > 100 µM (inactive)
GI50 (EKVX): > 100 µM (inactive)
GI50 (HCC 2998): > 100 µM (inactive)
GI50 (HCT-116): > 100 µM (inactive)
GI50 (HCT-15): > 100 µM
GI50 (HL-60): > 100 µM (inactive)
GI50 (HOP-62): > 100 µM (inactive)
GI50 (HT-29): > 100 µM (inactive)
GI50 (Hs-578T): > 100 µM (inactive)
GI50 (IGROV-1): > 100 µM (inactive)
GI50 (K562): > 100 µM (inactive)
GI50 (KM12): > 100 µM (inactive)
GI50 (LOX IMVI): > 100 µM (inactive)
GI50 (M14): > 100 µM (inactive)
GI50 (MCF7): > 100 µM (inactive)
GI50 (MDA-MB-231): > 100 µM (inactive)
GI50 (MDA-MB-435): > 100 µM (inactive)
GI50 (MDA-N): > 100 µM (inactive)
GI50 (MOLT-4): 47.6 µM (inactive)
GI50 (Malme-3M): > 100 µM (inactive)
GI50 (NCI-H226): > 100 µM (inactive)
GI50 (NCI-H23): > 100 µM (inactive)
GI50 (NCI-H522): > 100 µM (inactive)
GI50 (NCI/ADR-RES): > 100 µM (inactive)
GI50 (OVCAR-3): > 100 µM (inactive)
GI50 (OVCAR-4): > 100 µM (inactive)
GI50 (OVCAR-5): > 100 µM (inactive)
GI50 (OVCAR-8): > 100 µM (inactive)
GI50 (PC-3): > 100 µM (inactive)
GI50 (RPMI-8226): > 100 µM (inactive)
GI50 (RXF 393): > 100 µM (inactive)
GI50 (SF-268): > 100 µM (inactive)
GI50 (SF-295): > 100 µM (inactive)
GI50 (SF-539): > 100 µM (inactive)
GI50 (SK-MEL-2): > 100 µM (inactive)
GI50 (SK-MEL-5): > 100 µM (inactive)
GI50 (SK-OV-3): > 100 µM (inactive)
GI50 (SN12C): > 100 µM (inactive)
GI50 (SNB-19): > 100 µM (inactive)
GI50 (SNB-75): 27.4 µM (inactive)
GI50 (SR): > 100 µM (inactive)
GI50 (SW-620): > 100 µM (inactive)
GI50 (T47D): 39.2 µM (inactive)
GI50 (TK-10): > 100 µM (inactive)
GI50 (U-251): > 100 µM (inactive)
GI50 (UACC-257): > 100 µM (inactive)
GI50 (UACC-62): > 100 µM (inactive)
GI50 (UO-31): 84.9 µM (inactive)

CCOC(=O)c1cc(=O)oc2c1N(C)c1ncccc1N2
GI50 (786-0): > 100 µM (inactive)
GI50 (A498): > 100 µM (inactive)
GI50 (A549): > 100 µM (inactive)
GI50 (ACHN): 86.9 µM (inactive)
GI50 (BT-549): > 100 µM (inactive)
GI50 (CAKI-1): > 100 µM (inactive)
GI50 (COLO 205): > 100 µM (inactive)
GI50 (DU-145): > 100 µM (inactive)
GI50 (HCC 2998): > 100 µM (inactive)
GI50 (HCT-116): > 100 µM (inactive)
GI50 (HCT-15): > 100 µM
GI50 (HOP-62): > 100 µM (inactive)
GI50 (Hs-578T): > 100 µM (inactive)
GI50 (K562): > 100 µM (inactive)
GI50 (KM12): > 100 µM (inactive)
GI50 (LOX IMVI): > 100 µM (inactive)
GI50 (M14): > 100 µM (inactive)
GI50 (MCF7): > 100 µM (inactive)
GI50 (MDA-MB-231): 69.5 µM (inactive)
GI50 (MDA-MB-435): > 100 µM (inactive)
GI50 (MDA-N): > 100 µM (inactive)
GI50 (MOLT-4): > 100 µM (inactive)
GI50 (NCI-H226): > 100 µM (inactive)
GI50 (NCI-H23): > 100 µM (inactive)
GI50 (NCI-H460): > 100 µM (inactive)
GI50 (NCI/ADR-RES): > 100 µM (inactive)
GI50 (OVCAR-3): > 100 µM (inactive)
GI50 (OVCAR-4): > 100 µM (inactive)
GI50 (OVCAR-5): > 100 µM (inactive)
GI50 (OVCAR-8): > 100 µM (inactive)
GI50 (PC-3): > 100 µM (inactive)
GI50 (RPMI-8226): > 100 µM (inactive)
GI50 (RXF 393): > 100 µM (inactive)
GI50 (SF-268): > 100 µM (inactive)
GI50 (SF-295): > 100 µM (inactive)
GI50 (SK-MEL-28): > 100 µM (inactive)
GI50 (SK-MEL-2): > 100 µM (inactive)
GI50 (SK-OV-3): > 100 µM (inactive)
GI50 (SN12C): > 100 µM (inactive)
GI50 (SNB-19): > 100 µM (inactive)
GI50 (SNB-75): > 100 µM (inactive)
GI50 (SR): 63.4 µM (inactive)
GI50 (SW-620): > 100 µM (inactive)
GI50 (T47D): > 100 µM (inactive)
GI50 (TK-10): > 100 µM (inactive)
GI50 (U-251): > 100 µM (inactive)
GI50 (UACC-257): > 100 µM (inactive)
GI50 (UACC-62): > 100 µM (inactive)
GI50 (UO-31): 50.9 µM (inactive)

CCOC(=O)c1ccc(C(=O)/C(C#N)=C2\CCCN2)n1C
GI50 (786-0): > 100 µM (inactive)
GI50 (A498): > 100 µM (inactive)
GI50 (A549): > 100 µM (inactive)
GI50 (ACHN): > 100 µM (inactive)
GI50 (BT-549): 78.9 µM (inactive)
GI50 (CAKI-1): > 100 µM (inactive)
GI50 (CCRF-CEM): > 100 µM (inactive)
GI50 (COLO 205): > 100 µM (inactive)
GI50 (DU-145): 95.1 µM (inactive)
GI50 (EKVX): > 100 µM (inactive)
GI50 (HCC 2998): > 100 µM (inactive)
GI50 (HCT-116): > 100 µM (inactive)
GI50 (HCT-15): 76.4 µM
GI50 (HL-60): 34.2 µM (inactive)
GI50 (HOP-62): > 100 µM (inactive)
GI50 (HT-29): 79.4 µM (inactive)
GI50 (Hs-578T): > 100 µM (inactive)
GI50 (IGROV-1): > 100 µM (inactive)
GI50 (K562): 13.3 µM (inactive)
GI50 (KM12): > 100 µM (inactive)
GI50 (LOX IMVI): 86.5 µM (inactive)
GI50 (M14): > 100 µM (inactive)
GI50 (MCF7): 40.4 µM (inactive)
GI50 (MDA-MB-231): > 100 µM (inactive)
GI50 (MDA-MB-435): 31.2 µM (inactive)
GI50 (MDA-N): 34 µM (inactive)
GI50 (MOLT-4): 13.6 µM (inactive)
GI50 (Malme-3M): > 100 µM (inactive)
GI50 (NCI-H226): 79.1 µM (inactive)
GI50 (NCI-H23): 97.5 µM (inactive)
GI50 (NCI-H460): > 100 µM (inactive)
GI50 (NCI-H522): 95.7 µM (inactive)
GI50 (NCI/ADR-RES): 34.2 µM (inactive)
GI50 (OVCAR-3): 68.4 µM (inactive)
GI50 (OVCAR-4): > 100 µM (inactive)
GI50 (OVCAR-5): > 100 µM (inactive)
GI50 (OVCAR-8): > 100 µM (inactive)
GI50 (PC-3): > 100 µM (inactive)
GI50 (RPMI-8226): 0.703 µM (active)
GI50 (RXF 393): 25.7 µM (inactive)
GI50 (SF-268): > 100 µM (inactive)
GI50 (SF-295): > 100 µM (inactive)
GI50 (SK-MEL-28): > 100 µM (inactive)
GI50 (SK-MEL-2): > 100 µM (inactive)
GI50 (SK-MEL-5): 33.6 µM (inactive)
GI50 (SK-OV-3): > 100 µM (inactive)
GI50 (SN12C): > 100 µM (inactive)
GI50 (SNB-19): > 100 µM (inactive)
GI50 (SNB-75): 24.7 µM (inactive)
GI50 (SR): 31 µM (inactive)
GI50 (SW-620): > 100 µM (inactive)
GI50 (T47D): 28.2 µM (inactive)
GI50 (U-251): > 100 µM (inactive)
GI50 (UACC-62): > 100 µM (inactive)
GI50 (UO-31): > 100 µM (inactive)

Reference: ChEMBL document CHEMBL1201862, “PubChem BioAssay data set” (2004)
